According to a compilation of properties of binary mixtures (doi:10.1016/j.jct.2020.106093):

Assay: xn = mol fraction of the nth substance listed
Settings: 100.9 kPa

SMILES: CC(=O)[O-].CC[NH2+]CC + O
- viscosity (283.15 K, x1 = 0.015): 2.07 mPa·s
- viscosity (283.15 K, x1 = 0.055): 5.43 mPa·s
- viscosity (283.15 K, x1 = 0.119): 15.42 mPa·s
- viscosity (283.15 K, x1 = 0.549): 143.2 mPa·s
- viscosity (283.15 K, x1 = 0.714): 161.6 mPa·s
- viscosity (285.65 K, x1 = 0.015): 1.92 mPa·s
- viscosity (285.65 K, x1 = 0.055): 4.91 mPa·s
- viscosity (285.65 K, x1 = 0.119): 13.69 mPa·s
- viscosity (285.65 K, x1 = 0.168): 24.1 mPa·s
- viscosity (285.65 K, x1 = 0.24): 47.8 mPa·s
- viscosity (285.65 K, x1 = 0.351): 79.3 mPa·s
- viscosity (285.65 K, x1 = 0.549): 122.5 mPa·s
- viscosity (285.65 K, x1 = 0.714): 138.5 mPa·s
- viscosity (288.15 K, x1 = 0.015): 1.78 mPa·s
- viscosity (288.15 K, x1 = 0.055): 4.46 mPa·s
- viscosity (288.15 K, x1 = 0.119): 12.18 mPa·s
- viscosity (288.15 K, x1 = 0.168): 21.1 mPa·s
- viscosity (288.15 K, x1 = 0.24): 41.6 mPa·s
- viscosity (288.15 K, x1 = 0.351): 68.3 mPa·s
- viscosity (288.15 K, x1 = 0.714): 119 mPa·s
- viscosity (290.65 K, x1 = 0.015): 1.65 mPa·s
- viscosity (290.65 K, x1 = 0.055): 4.05 mPa·s
- viscosity (290.65 K, x1 = 0.119): 10.87 mPa·s
- viscosity (290.65 K, x1 = 0.168): 18.7 mPa·s
- viscosity (290.65 K, x1 = 0.24): 36.3 mPa·s
- viscosity (290.65 K, x1 = 0.351): 59 mPa·s
- viscosity (290.65 K, x1 = 0.549): 90.6 mPa·s
- viscosity (290.65 K, x1 = 0.714): 102.7 mPa·s
- speed of sound (293.15 K, x1 = 0.015): 1580 m/s
- viscosity (293.15 K, x1 = 0.015): 1.538 mPa·s
- speed of sound (293.15 K, x1 = 0.055): 1761 m/s
- viscosity (293.15 K, x1 = 0.055): 3.73 mPa·s
- speed of sound (293.15 K, x1 = 0.119): 1844 m/s
- viscosity (293.15 K, x1 = 0.119): 9.74 mPa·s
- speed of sound (293.15 K, x1 = 0.168): 1826 m/s
- viscosity (293.15 K, x1 = 0.168): 16.49 mPa·s
- speed of sound (293.15 K, x1 = 0.24): 1768 m/s
- viscosity (293.15 K, x1 = 0.24): 31.8 mPa·s
- speed of sound (293.15 K, x1 = 0.35): 1704 m/s
- viscosity (293.15 K, x1 = 0.351): 51.2 mPa·s
- speed of sound (293.15 K, x1 = 0.549): 1597 m/s
- viscosity (293.15 K, x1 = 0.549): 78.4 mPa·s
- speed of sound (293.15 K, x1 = 0.708): 1554 m/s
- viscosity (293.15 K, x1 = 0.714): 89.2 mPa·s
- speed of sound (293.15 K, x1 = 0.835): 1523 m/s
- viscosity (295.65 K, x1 = 0.015): 1.437 mPa·s
- viscosity (295.65 K, x1 = 0.055): 3.4 mPa·s
- viscosity (295.65 K, x1 = 0.119): 8.75 mPa·s
- viscosity (295.65 K, x1 = 0.24): 28 mPa·s
- viscosity (295.65 K, x1 = 0.351): 44.7 mPa·s
- viscosity (295.65 K, x1 = 0.549): 68.4 mPa·s
- viscosity (295.65 K, x1 = 0.714): 77.8 mPa·s
- electrical conductivity (298.15 K, x1 = 0.007): 1.55 S/m
- electrical conductivity (298.15 K, x1 = 0.015): 2.35 S/m
- speed of sound (298.15 K, x1 = 0.015): 1588 m/s
- viscosity (298.15 K, x1 = 0.015): 1.346 mPa·s
- electrical conductivity (298.15 K, x1 = 0.054): 3.1 S/m
- speed of sound (298.15 K, x1 = 0.055): 1756 m/s
- viscosity (298.15 K, x1 = 0.055): 3.12 mPa·s
- speed of sound (298.15 K, x1 = 0.119): 1832 m/s
- viscosity (298.15 K, x1 = 0.119): 7.91 mPa·s
- electrical conductivity (298.15 K, x1 = 0.12): 2.48 S/m
- electrical conductivity (298.15 K, x1 = 0.168): 1.73 S/m
- speed of sound (298.15 K, x1 = 0.168): 1813 m/s
- viscosity (298.15 K, x1 = 0.168): 13.13 mPa·s
- electrical conductivity (298.15 K, x1 = 0.24): 0.98 S/m
- speed of sound (298.15 K, x1 = 0.24): 1754 m/s
- viscosity (298.15 K, x1 = 0.24): 24.8 mPa·s
- viscosity (298.15 K, x1 = 0.351): 39.3 mPa·s
- electrical conductivity (298.15 K, x1 = 0.353): 0.708 S/m
- speed of sound (298.15 K, x1 = 0.549): 1583 m/s
- viscosity (298.15 K, x1 = 0.549): 59.9 mPa·s
- electrical conductivity (298.15 K, x1 = 0.55): 0.365 S/m
- electrical conductivity (298.15 K, x1 = 0.714): 0.26 S/m
- viscosity (298.15 K, x1 = 0.714): 68.2 mPa·s
- speed of sound (298.15 K, x1 = 0.835): 1507 m/s
- electrical conductivity (298.15 K, x1 = 0.838): 0.231 S/m
- electrical conductivity (298.15 K, x1 = 0.945): 0.23 S/m
- viscosity (300.65 K, x1 = 0.015): 1.263 mPa·s
- viscosity (300.65 K, x1 = 0.055): 2.88 mPa·s
- viscosity (300.65 K, x1 = 0.119): 7.17 mPa·s
- viscosity (300.65 K, x1 = 0.24): 21.9 mPa·s
- viscosity (300.65 K, x1 = 0.351): 34.6 mPa·s
- viscosity (300.65 K, x1 = 0.549): 52.4 mPa·s
- viscosity (300.65 K, x1 = 0.714): 60 mPa·s
- electrical conductivity (303.15 K, x1 = 0.007): 1.69 S/m
- electrical conductivity (303.15 K, x1 = 0.015): 3.24 S/m
- speed of sound (303.15 K, x1 = 0.015): 1595 m/s
- viscosity (303.15 K, x1 = 0.015): 1.189 mPa·s
- electrical conductivity (303.15 K, x1 = 0.054): 4.76 S/m
- speed of sound (303.15 K, x1 = 0.055): 1751 m/s
- viscosity (303.15 K, x1 = 0.055): 2.67 mPa·s
- speed of sound (303.15 K, x1 = 0.119): 1819 m/s
- viscosity (303.15 K, x1 = 0.119): 6.51 mPa·s
- electrical conductivity (303.15 K, x1 = 0.12): 3.2 S/m
- electrical conductivity (303.15 K, x1 = 0.24): 1.5 S/m
- speed of sound (303.15 K, x1 = 0.24): 1741 m/s
- viscosity (303.15 K, x1 = 0.24): 19.6 mPa·s
- speed of sound (303.15 K, x1 = 0.35): 1677 m/s
- electrical conductivity (303.15 K, x1 = 0.353): 0.823 S/m
- speed of sound (303.15 K, x1 = 0.549): 1569 m/s
- viscosity (303.15 K, x1 = 0.549): 46.3 mPa·s
- electrical conductivity (303.15 K, x1 = 0.55): 0.473 S/m
- speed of sound (303.15 K, x1 = 0.708): 1524 m/s
- electrical conductivity (303.15 K, x1 = 0.714): 0.365 S/m
- viscosity (303.15 K, x1 = 0.714): 53 mPa·s
- electrical conductivity (303.15 K, x1 = 0.838): 0.297 S/m
- electrical conductivity (303.15 K, x1 = 0.945): 0.29 S/m
- viscosity (305.65 K, x1 = 0.015): 1.121 mPa·s
- viscosity (305.65 K, x1 = 0.055): 2.48 mPa·s
- viscosity (305.65 K, x1 = 0.119): 5.94 mPa·s
- viscosity (305.65 K, x1 = 0.168): 9.61 mPa·s
- viscosity (305.65 K, x1 = 0.351): 27.2 mPa·s
- viscosity (305.65 K, x1 = 0.549): 41.1 mPa·s
- viscosity (305.65 K, x1 = 0.714): 47 mPa·s
- speed of sound (308.15 K, x1 = 0.015): 1601 m/s
- viscosity (308.15 K, x1 = 0.015): 1.059 mPa·s
- speed of sound (308.15 K, x1 = 0.055): 1745 m/s
- viscosity (308.15 K, x1 = 0.055): 2.31 mPa·s
- speed of sound (308.15 K, x1 = 0.119): 1807 m/s
- viscosity (308.15 K, x1 = 0.119): 5.44 mPa·s
- speed of sound (308.15 K, x1 = 0.168): 1786 m/s
- viscosity (308.15 K, x1 = 0.168): 8.71 mPa·s
- speed of sound (308.15 K, x1 = 0.24): 1727 m/s
- viscosity (308.15 K, x1 = 0.24): 15.67 mPa·s
- speed of sound (308.15 K, x1 = 0.35): 1664 m/s
- viscosity (308.15 K, x1 = 0.351): 24.2 mPa·s
- speed of sound (308.15 K, x1 = 0.549): 1555 m/s
- viscosity (308.15 K, x1 = 0.549): 36.6 mPa·s
- speed of sound (308.15 K, x1 = 0.708): 1509 m/s
- viscosity (308.15 K, x1 = 0.714): 41.9 mPa·s
- viscosity (310.65 K, x1 = 0.015): 1.003 mPa·s
- viscosity (310.65 K, x1 = 0.055): 2.15 mPa·s
- viscosity (310.65 K, x1 = 0.119): 5 mPa·s
- viscosity (310.65 K, x1 = 0.168): 7.94 mPa·s
- viscosity (310.65 K, x1 = 0.351): 21.7 mPa·s
- viscosity (310.65 K, x1 = 0.714): 37.4 mPa·s
- viscosity (310.65 K, x1 = 0.84): 38 mPa·s
- speed of sound (313.15 K, x1 = 0.015): 1605 m/s
- viscosity (313.15 K, x1 = 0.015): 0.952 mPa·s
- speed of sound (313.15 K, x1 = 0.055): 1739 m/s
- viscosity (313.15 K, x1 = 0.055): 2.01 mPa·s
- speed of sound (313.15 K, x1 = 0.119): 1794 m/s
- viscosity (313.15 K, x1 = 0.119): 4.6 mPa·s
- speed of sound (313.15 K, x1 = 0.168): 1772 m/s
- viscosity (313.15 K, x1 = 0.168): 7.26 mPa·s
- speed of sound (313.15 K, x1 = 0.24): 1713 m/s
- viscosity (313.15 K, x1 = 0.24): 12.76 mPa·s
- speed of sound (313.15 K, x1 = 0.35): 1650 m/s
